Read-outs that look alike come from different tables or passages of the source. Square brackets hold non-standard residues; d marks the D form. Peptide text beside a SMILES is read from it. * marks the point of attachment. NHPhenethyl = c1ccc(CCN*)cc1; Cbz = O=C(OCc1ccccc1)*; NHBn = c1ccc(CN*)cc1; Bz = O=C(c1ccccc1)*; NHPh = c1ccc(N*)cc1
Legend:
[1] = biological target: T1, Gadd45β/MKK7 interaction (Homo sapiens, UniProt O14733); assay: ELISA competition assay of biotin-hGadd45β binding to coated GST-MKK7; conditions: Table V, read-out: IC50 ELISA
T1 construct: The GST-fused full-length kinase was coated for 16 h at 4° C., at a concentration of 42 nM; made in house
T1 sequence (O14733 1-419): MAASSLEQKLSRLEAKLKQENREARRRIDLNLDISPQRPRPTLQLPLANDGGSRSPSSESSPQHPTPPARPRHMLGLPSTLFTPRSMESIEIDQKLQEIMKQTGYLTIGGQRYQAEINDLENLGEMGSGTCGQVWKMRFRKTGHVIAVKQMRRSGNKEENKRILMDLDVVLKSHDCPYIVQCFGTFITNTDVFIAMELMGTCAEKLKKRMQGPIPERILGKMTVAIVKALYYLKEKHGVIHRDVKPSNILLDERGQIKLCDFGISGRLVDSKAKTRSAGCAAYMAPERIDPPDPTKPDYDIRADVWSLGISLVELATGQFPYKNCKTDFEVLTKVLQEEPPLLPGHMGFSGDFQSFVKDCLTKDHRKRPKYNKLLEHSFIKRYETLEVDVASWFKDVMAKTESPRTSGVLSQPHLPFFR
Description: To evaluate the inhibitory properties of peptides, ELISA-based assays were performed. In these assays, a fusion protein of glutathione S-transferase (GST) and mitogen-activated protein kinase kinase 7 (MKK7) was coated onto wells of a 96-well plate, while biotinylated-hGadd45β was used in solution. hGadd45β was biotinylated using an EZ Link NHS-LC-biotin kit (Pierce, Rockford, Ill.), according to Tornatore et al. (Tornatore L., et al. (2008). J Mol Biol; 378:97-111).
Firstly, the association between Gadd45β and MKK7 was investigated by ELISA assays as also reported in Tornatore et al. (Tornatore L., et al. (2008). J Mol Biol; 378:97-111). The GST-fused full-length kinase was coated for 16 h at 4° C., at a concentration of 42 nM in buffer A (25 mM Tris pH 7.5, 150 mM NaCl, 1 mM DTT and 1 mM EDTA) into wells of a 96-well microliter plate. Some wells were filled with buffer alone and were used as blanks. After incubation for 16 h at 4° C., the solutions were removed and the wells were filled with 350 μL of a 1% (w/v) solution of NFDM (Non Fat Dry Milk) in PBS (phosphate buffered saline). The plate was incubated for 1 h at 37° C. in the dark. After washing with buffer T-PBS (PBS with 0.004% (v/v) Tween detergent), the wells were filled with 100 μL of biotinylated-hGadd45β at concentrations ranging from 8.4 nM to 168 nM. Each data point was performed in triplicate. Following incubation for 1 hr in the dark at 37° C. the solutions were removed and the wells were again washed with T-PBS. Then 100 μL of a 1:10,000 dilution of horseradish peroxidase-conjugated streptavidin dissolved in buffer was added to each well and the plate incubated for 1 hr at 37° C. in the dark. After removal of the enzyme solution and washing, 100 μL of the chromogenic substrate o-phenylendiamine (0.4 mg/mL in 50 mM sodium phosphate-citrate buffer, containing 0.4 mg/mL of urea in hydrogen peroxide) was added and the colour was allowed to develop in the dark for 5 min. The reaction was stopped by adding 50 μL of 2.5 M H2SO4. The absorbance at 490 nm was measured in all wells and the values were averaged after subtracting the corresponding blanks. Bound protein was then detected as described above. The molar concentration of biotinylated-hGadd45β at which the half-maximal ELISA signal is detected corresponds to the dissociation constant (KD) (Friguet B, Chaffotte A F, Djavadi-Ohaniance L, Goldberg M E. J Immunol Methods. 1985 Mar. 18; 77 (2):305-19). Binding competition assays were performed by coating GST-MKK7 at 42 nM as described, a concentration of biotinylated-hGadd45β of 21 nM (pre-saturation conditions 1:0.5 mol/mol ratio) and, in a first test, using competitors at 21 nM. The binding of biotinylated hGadd45β to GST-MKK7 was analyzed in the presence of increasing amounts of competitor peptide (concentrations ranging from 0.01 nM to 100 nM), and the values obtained with the competitor were expressed as the percentage of the binding detected in the absence of competitor. […] According to the convention adopted in the table “L-Xaa” and “D-Xaa” refer to the L and D forms of amino acid Xaa.
A simplified combinatorial peptide library (Marasco et al. 2008, Curr. Protein Pept. Sci. 9:447-67) was screened for antagonists of the Gadd45β/MKK7 interaction. This library contained a total of 12^4=20,736 different tetrapeptides formed by combinations of the following amino acid residues Gln (Q), Ser (S), Arg (R), Ala (A), Tyr (Y), Pro (P), Met (M), Cys (C), Phe (F), Leu (L), His (H), Asp (D), and was iteratively deconvoluted in four steps by ELISA competition assays using at each step coated MKK7 (42 nM), soluble-biotin-hGadd45β (21 nM) and each of the 12 sub-libraries (42 nM).

[2] = system: KMS12 multiple myeloma cells; assay: [3H]thymidine incorporation assay in KMS12; format: cell-based, human
Description: In these latter assays, the effects of Z-DTPs, Ac-DTPs and Z-LTPs on the survival/proliferation of tumour cell lines was investigated by measuring DNA synthesis using standard tritiated thymidine ([^3H]thymidine; [^3H]-TdR) uptake assays. In the analyses shown, cells were incubated for 24, 72, 120 or 144 hrs at 37° C. in the presence or absence of control or bioactive tetrapeptides, as indicated, then subjected to an additional incubation for 18 hrs with [^3H]-TdR (0.037 MBq/well, equivalent to 0.5 μCi/well). Cells were subsequently harvested onto glass fibre filter mats using a 96-well plate automated cell harvester, after which scintillation fluid was added, and [^3H]thymidine incorporation measured by liquid scintillation spectroscopy on a beta counter. The results are expressed as the percentages of the counts per minute (c.p.m.) (directly correlating with the extent of cell proliferation) measured with tetrapeptide-treated cultures relative to the c.p.m. measured with the corresponding cultures incubated with medium alone (untreated cells). All experiments were performed in triplicate.

[3] = system: KMS11 multiple myeloma cells; assay: [3H]thymidine incorporation assay in KMS11; format: cell-based, human
Description: Cultures of multiple myeloma cells and treatments with Z-DTPs were carried out as described in Example 8 (see below). The effects of Z-DTPs on the survival/proliferation of multiple myeloma cells were evaluated by the use of [^3H]thymidine) incorporation assays, performed as also described in Example 8. The amount of cell proliferation measured with each of the Z-DTPs' concentrations used and with the untreated cultures (i.e. cultures incubated with medium alone), was expressed as counts per minute (c.p.m.)—which directly correlate with the extent of cell proliferation. All experiments were performed in triplicate.
In these latter assays, the effects of Z-DTPs, Ac-DTPs and Z-LTPs on the survival/proliferation of tumour cell lines was investigated by measuring DNA synthesis using standard tritiated thymidine ([^3H]thymidine; [^3H]-TdR) uptake assays. In the analyses shown, cells were incubated for 24, 72, 120 or 144 hrs at 37° C. in the presence or absence of control or bioactive tetrapeptides, as indicated, then subjected to an additional incubation for 18 hrs with [^3H]-TdR (0.037 MBq/well, equivalent to […]). Cells were subsequently harvested onto glass fibre filter mats using a 96-well plate automated cell harvester, after which scintillation fluid was added, and [^3H]thymidine incorporation measured by liquid scintillation spectroscopy on a beta counter. The results are expressed as the percentages of the counts per minute (c.p.m.) (directly correlating with the extent of cell proliferation) measured with tetrapeptide-treated cultures relative to the c.p.m. measured with the corresponding cultures incubated with medium alone (untreated cells). All experiments were performed in triplicate.

[4] = Day 1, read-out: IC50 [H^3] thymidine incorporation assay in KMS11
[5] = Day 3, read-out: IC50 [H^3] thymidine incorporation assay in KMS11
[6] = Day 6, read-out: IC50 [H^3] thymidine incorporation assay in KMS11

| Structure (SMILES) | IC50 [2] | IC50 [3] | IC50 [3, 5] | IC50 [3, 6] | other results |
| --- | --- | --- | --- | --- | --- |
| O=C(O)C[C@@H](NC(=O)c1ccccc1)C(=O)N[C@H](Cc1c[nH]cn1)C(=O)NCc1ccccc1 [Compound 3, X1-Asp-His-Y2] (Bz-[dD]-[dH]-NHBn) | > 10 µM | > 10 µM |  |  | IC50 ([1]; FIG. 3C): > 0.001 µM |
| O=C(O)C[C@@H](NC(=O)c1ccccc1)C(=O)N[C@H](Cc1c[nH]cn1)C(=O)Nc1ccccc1 [Compound 2, X1-Asp-His-Y1] (Bz-[dD]-[dH]-NHPh) | > 10 µM | > 10 µM |  |  | IC50 ([1]; FIG. 3C): > 0.001 µM |
| O=C(O)C[C@@H](NC(=O)c1ccc(O)cc1)C(=O)N[C@H](Cc1c[nH]cn1)C(=O)Nc1ccccc1 [Compound 5, X2-Asp-His-Y1] | > 10 µM | > 10 µM |  |  |  |
| CC(C)C[C@@H](NC(=O)[C@@H](Cc1ccc(O)cc1)NC(=O)OCc1ccccc1)C(=O)N[C@H](CCCNC(=N)N)C(=O)N[C@H](Cc1ccccc1)C(N)=O [Z-Tyr-Leu-Arg-Phe-NH2] (Cbz-[dY][dL][dR][dF]-NH2) |  |  | > 10 µM | > 10 µM | IC50 [3, 4]: > 10 µM |
| N=C(N)NCCC[C@@H](NC(=O)[C@@H](CCC(N)=O)NC(=O)[C@@H](Cc1ccc(O)cc1)NC(=O)OCc1ccccc1)C(=O)N[C@H](Cc1ccccc1)C(N)=O [Z-Tyr-Gln-Arg-Phe-NH2] (Cbz-[dY][dQ][dR][dF]-NH2) |  |  | > 10 µM | > 10 µM | IC50 [3, 4]: > 10 µM |
| O=C(O)C[C@@H](NC(=O)c1ccc(O)cc1)C(=O)N[C@H](Cc1c[nH]cn1)C(=O)NCc1ccccc1 [Compound 6, X2-Asp-His-Y2] | > 10 µM | > 10 µM |  |  |  |
| N=C(N)NCCC[C@@H](NC(=O)[C@@H](CCC(=O)O)NC(=O)c1ccc(O)cc1)C(=O)Nc1ccccc1 [Compound 13, X2-Glu-Arg-Y1] |  | > 10 µM |  |  |  |
| NC(=O)[C@@H](Cc1ccccc1)NC(=O)[C@@H](CC(=O)O)NC(=O)[C@@H](Cc1ccc(O)cc1)NC(=O)OCc1ccccc1 [Compound 8, Z-Tyr-Asp-Phe-NH2] (Cbz-[dY]-[dD]-[dF]-NH2) |  |  | > 10 µM | > 10 µM | IC50 ([1]; peptides 0.01-10 nM): 0.000162 µM |
| O=C(O)C[C@@H](NC(=O)c1ccccc1)C(=O)N[C@H](Cc1c[nH]cn1)C(=O)NCCc1ccccc1 [Compound 4, X1-Asp-His-Y3] (Bz-[dD]-[dH]-NHPhenethyl) | > 10 µM | > 10 µM |  |  | IC50 ([1]; peptides 0.01-10 nM): 0.0005 µM |
| N=C(N)NCCC[C@@H](NC(=O)[C@@H](CCC(=O)O)NC(=O)c1ccccc1)C(=O)NCCc1ccccc1 [Compound 12, X1-Glu-Arg-Y3] (Bz-[dE]-[dR]-NHPhenethyl) |  | > 10 µM |  |  |  |
| N=C(N)NCCC[C@@H](NC(=O)[C@@H](CCC(=O)O)NC(=O)c1ccccc1)C(=O)NCc1ccccc1 [Compound 11, X1-Glu-Arg-Y2] (Bz-[dE]-[dR]-NHBn) |  | > 10 µM |  |  |  |
| CSCC[C@@H](NC(=O)[C@@H](Cc1ccc(O)cc1)NC(=O)OCc1ccccc1)C(=O)N[C@H](Cc1ccccc1)C(N)=O [Z-Tyr-Met-Phe-NH2] (Cbz-[dY]-[dM]-[dF]-NH2) |  |  | > 10 µM | > 10 µM | IC50 [3, 4]: > 10 µM |
| N=C(N)NCCC[C@@H](NC(=O)[C@@H](CCC(=O)O)NC(=O)c1ccc(O)cc1)C(=O)NCc1ccccc1 [Compound 14, X2-Glu-Arg-Y2] |  | > 10 µM |  |  |  |

Source: patent US8993717B2, “Gadd45beta targeting agents” (Imperial Innovations Limited, priority 2009, dated 2015)
